In patent publication US4963542A, “Cephalosporin derivatives” (Takeda Chemical Industries, Ltd., priority 1976, dated 1990):

Assays:
Test in all cases: Minimal inhibitory concentration, agar serial dilution
Format in all cases: cell-based
Details in all cases: TSA, inoculum 10^7 /ml
[1] = system: Serratia marcescens TN24
Excerpt: (§1) (a) Minimal inhibitory concentrations (Table 1 and 2)
(§2) Method: Agar serial dilution

[2] = system: Enterobacter cloacae TN1282
Excerpt: as §1, §2

[3] = system: Proteus rettgeri GN4733
Excerpt: as §1, §2

[4] = system: Klebsiella pneumoniae GN-3835
Excerpt: as §1, §2

[5] = system: Staphylococcus aureus 1840
Excerpt: as §1, §2

[6] = system: Staphylococcus aureus 209P
Excerpt: as §1, §2

[7] = system: Escherichia coli NIHJ JC-2
Excerpt: as §1, §2

[8] = system: Proteus vulgaris GN4413
Excerpt: as §1, §2

[9] = system: Proteus morganii IFO3168
Excerpt: as §1, §2

[10] = system: Citrobacter freundii GN1706
Excerpt: as §1, §2

[11] = system: Proteus vulgaris IFO 3988
Excerpt: as §1, §2

[12] = system: Citrobacter freundii GN99
Excerpt: as §1, §2

[13] = system: Proteus mirabilis GN4359
Excerpt: as §1, §2

[14] = system: Proteus rettgeri TN338
Excerpt: as §1, §2

[15] = system: Klebsiella pneumoniae DT
Excerpt: as §1, §2

[16] = system: Escherichia coli 0-111
Excerpt: as §1, §2

[17] = system: Serratia marcescens IFO 12648
Excerpt: as §1, §2

[18] = system: Escherichia coli T-7
Excerpt: as §1, §2

## N=c1[nH]c(/C(=N/O)C(=O)NC2C(=O)N3C(C(=O)O)=C(COC(N)=O)CSC23)cs1 (stereo not drawn) [Example 26, sodium 7-[2-(2-imino-4-thiazolin-4-yl)-2-hydroxyimino-acetamido]-3-carbamoyloxymethyl-3-cephem-4-carboxylate (syn-isomer)]
[1]
  Minimal inhibitory concentration (MIC): 1.56
[2]
  Minimal inhibitory concentration (MIC): 12.5
[3]
  Minimal inhibitory concentration (MIC): 0.024
[4]
  Minimal inhibitory concentration (MIC): 0.05
[5]
  Minimal inhibitory concentration (MIC): 0.78
[6]
  Minimal inhibitory concentration (MIC): 0.78
[7]
  Minimal inhibitory concentration (MIC): 0.05
[8]
  Minimal inhibitory concentration (MIC): 50
[9]
  Minimal inhibitory concentration (MIC): 0.39
[10]
  Minimal inhibitory concentration (MIC): 0.10
[11]
  Minimal inhibitory concentration (MIC): 0.10
[12]
  Minimal inhibitory concentration (MIC): 0.05
[13]
  Minimal inhibitory concentration (MIC): 0.05
[14]
  Minimal inhibitory concentration (MIC): ≤ 0.012
[15]
  Minimal inhibitory concentration (MIC): 0.024
[16]
  Minimal inhibitory concentration (MIC): 0.024
[17]
  Minimal inhibitory concentration (MIC): 12.5
[18]
  Minimal inhibitory concentration (MIC): 0.39

## Cc1nsc(SCC2=C(C(=O)O)N3C(=O)C(NC(=O)/C(=N\O)c4csc(=N)[nH]4)C3SC2)n1 (stereo not drawn) [Example 14, sodium 7-[2-(2-imino-4-thiazoline-4-yl)-2-hydroxyimino-acetamido]-3-(3-methyl-1,2,4-thiadiazol-5-yl)thiomethyl-3-cephem-4-carboxylate (syn-isomer)]
[1]
  Minimal inhibitory concentration (MIC): 0.78
[2]
  Minimal inhibitory concentration (MIC): 6.25
[3]
  Minimal inhibitory concentration (MIC): 0.39
[4]
  Minimal inhibitory concentration (MIC): 0.78
[5]
  Minimal inhibitory concentration (MIC): 0.78
[6]
  Minimal inhibitory concentration (MIC): 0.39
[7]
  Minimal inhibitory concentration (MIC): 0.39
[8]
  Minimal inhibitory concentration (MIC): 1.56
[9]
  Minimal inhibitory concentration (MIC): 0.20
[10]
  Minimal inhibitory concentration (MIC): 0.78
[11]
  Minimal inhibitory concentration (MIC): 0.10
[12]
  Minimal inhibitory concentration (MIC): 0.39
[13]
  Minimal inhibitory concentration (MIC): 0.39
[14]
  Minimal inhibitory concentration (MIC): 0.024
[15]
  Minimal inhibitory concentration (MIC): 0.20
[16]
  Minimal inhibitory concentration (MIC): 0.20
[17]
  Minimal inhibitory concentration (MIC): 6.25

## CC(=O)OCC1=C(C(=O)[O-])N2C(=O)C(NC(=O)Cc3cccs3)[C@H]2SC1.[Na+] (stereo partly shown) [Cephalothin, sodium 7-(2-thienylacetamido)-3-acetoxymethyl-3-cephem-4-carboxylate, reference compound]
[1]
  Minimal inhibitory concentration (MIC): > 100
[2]
  Minimal inhibitory concentration (MIC): > 100
[3]
  Minimal inhibitory concentration (MIC): > 100
[4]
  Minimal inhibitory concentration (MIC): 12.5
[5]
  Minimal inhibitory concentration (MIC): 0.39
[6]
  Minimal inhibitory concentration (MIC): 0.20
[7]
  Minimal inhibitory concentration (MIC): 12.5
[8]
  Minimal inhibitory concentration (MIC): > 100
[9]
  Minimal inhibitory concentration (MIC): > 100
[10]
  Minimal inhibitory concentration (MIC): > 100
[11]
  Minimal inhibitory concentration (MIC): 1.56
[12]
  Minimal inhibitory concentration (MIC): 25
[13]
  Minimal inhibitory concentration (MIC): 3.13
[14]
  Minimal inhibitory concentration (MIC): 1.56
[15]
  Minimal inhibitory concentration (MIC): 1.56
[16]
  Minimal inhibitory concentration (MIC): 3.13
[17]
  Minimal inhibitory concentration (MIC): > 100
[18]
  Minimal inhibitory concentration (MIC): 100

## N=c1[nH]c(/C(=N/O)C(=O)NC2C(=O)N3C(C(=O)O)=C(CSc4cnn[nH]4)CSC23)cs1 (stereo not drawn) [Example 13, sodium 7-[2-(2-imino-4-thiazolin-4-yl)-2-hydroxyimino-acetamido]-3-(1,2,3-triazol-5-yl)thiomethyl-3-cephem-4-carboxylate (syn-isomer)]
[1]
  Minimal inhibitory concentration (MIC): 1.56
[2]
  Minimal inhibitory concentration (MIC): 25
[3]
  Minimal inhibitory concentration (MIC): 0.20
[4]
  Minimal inhibitory concentration (MIC): 0.20
[5]
  Minimal inhibitory concentration (MIC): 0.78
[6]
  Minimal inhibitory concentration (MIC): 0.78
[7]
  Minimal inhibitory concentration (MIC): 0.10
[8]
  Minimal inhibitory concentration (MIC): 50
[9]
  Minimal inhibitory concentration (MIC): 0.20
[10]
  Minimal inhibitory concentration (MIC): 0.78
[11]
  Minimal inhibitory concentration (MIC): 0.10
[12]
  Minimal inhibitory concentration (MIC): 0.39
[13]
  Minimal inhibitory concentration (MIC): 0.10
[14]
  Minimal inhibitory concentration (MIC): ≤ 0.012
[15]
  Minimal inhibitory concentration (MIC): 0.05
[16]
  Minimal inhibitory concentration (MIC): 0.05
[17]
  Minimal inhibitory concentration (MIC): 12.5
[18]
  Minimal inhibitory concentration (MIC): 0.78

## N=c1[nH]c(C(=NO)C(=O)NC2C(=O)N3C(C(=O)[O-])=C(C[n+]4ccc(C(N)=O)cc4)CSC23)cs1 (stereo not drawn) [Example 17, 7-[2-(2-imino-4-thiazolin-4-yl)-2-hydroxyimino-acetamido]-3-(4-carbamoylpyridiniummethyl)-3-cephem-4-carboxylate (syn-isomer)]
[1]
  Minimal inhibitory concentration (MIC): 0.78
[2]
  Minimal inhibitory concentration (MIC): 12.5
[3]
  Minimal inhibitory concentration (MIC): 0.20
[4]
  Minimal inhibitory concentration (MIC): 1.56
[5]
  Minimal inhibitory concentration (MIC): 0.39
[6]
  Minimal inhibitory concentration (MIC): 0.39
[7]
  Minimal inhibitory concentration (MIC): 0.39
[8]
  Minimal inhibitory concentration (MIC): 3.13
[9]
  Minimal inhibitory concentration (MIC): 0.39
[10]
  Minimal inhibitory concentration (MIC): 0.78
[11]
  Minimal inhibitory concentration (MIC): 0.39
[12]
  Minimal inhibitory concentration (MIC): 0.20
[13]
  Minimal inhibitory concentration (MIC): 0.39
[14]
  Minimal inhibitory concentration (MIC): 0.05
[15]
  Minimal inhibitory concentration (MIC): 0.20
[16]
  Minimal inhibitory concentration (MIC): 0.20
[17]
  Minimal inhibitory concentration (MIC): 1.56
[18]
  Minimal inhibitory concentration (MIC): 25

## Cc1nnc(SCC2=C(C(=O)[O-])N3C(=O)C(NC(=O)Cn4cnnn4)[C@H]3SC2)s1.[Na+] (stereo partly shown) [Cefazolin, sodium 7-(1H-tetrazol-1-yl)acetamido-3-(2-methyl-1,3,4-thiadiazol-5-yl)thiomethyl-3-cephem-4-carboxylate, reference compound]
[1]
  Minimal inhibitory concentration (MIC): > 100
[3]
  Minimal inhibitory concentration (MIC): 100
[4]
  Minimal inhibitory concentration (MIC): 6.25
[5]
  Minimal inhibitory concentration (MIC): 1.56
[6]
  Minimal inhibitory concentration (MIC): 0.39
[7]
  Minimal inhibitory concentration (MIC): 1.56
[8]
  Minimal inhibitory concentration (MIC): > 100
[9]
  Minimal inhibitory concentration (MIC): 100
[10]
  Minimal inhibitory concentration (MIC): > 100
[11]
  Minimal inhibitory concentration (MIC): 3.13
[12]
  Minimal inhibitory concentration (MIC): 12.5
[13]
  Minimal inhibitory concentration (MIC): 6.25
[14]
  Minimal inhibitory concentration (MIC): ≤ 0.2
[15]
  Minimal inhibitory concentration (MIC): 1.56
[16]
  Minimal inhibitory concentration (MIC): 1.56
[17]
  Minimal inhibitory concentration (MIC): > 100
[18]
  Minimal inhibitory concentration (MIC): 50
